From patent US20140357512A1, “HISTONE DEACETYLASE (HDAC) BIOMARKERS IN MULTIPLE MYELOMA” (priority 2013, published 2014)

System: human myeloma cell line MM.1S
Experiment: SILAC acetylated-lysine peptide profiling, HDAC inhibitor vs DMSO (light/heavy ratio)
Type: cell-based
From the text: An embodiment of the invention comprises utilizing the SILAC method in order to quantitate changes in protein expression between two or more populations of cells. The SILAC method is a technique based on mass spectrometry that detects differences in protein abundance among samples using non-radioactive isotopic labeling. The SILAC method is known in the art, and described in detail in Ong et al., “Stable Isotope Labeling by Amino Acids in Cell Culture, SILAC, as a Simple and Accurate Approach to Expression Proteomics”, Molecular & Cellular Proteomics, vol. 1, pp. 376-386 (2002), which is incorporated herein by reference in its entirety.
Briefly, the SILAC method involves growing two populations of cells in cell culture. The first population of cells is grown in growth media containing normal amino acids (“normal media”). The second population of cells is grown in media lacking a standard essential amino acid (such as lysine), but is then supplemented with a non-radioactive, isotopically labeled form of that essential amino acid (such as lysine labeled with ^13C atoms, rather than normal ^12C atoms), which is called “heavy media”. When the two populations of cells are each growing in the medium, they incorporate the amino acids into all of their proteins. The growth of cells maintained in the heavy media is no different from that in normal media. All peptides containing the heavy amino acids are heavier than their normal counterparts. The cells from each of the two populations of cells are lysed. The lysates from each of the two cell populations are then combined. The combined cell lysates are then analyzed by mass spectrometry. Pairs of chemically identical peptides of different stable isotope composition can be differentiated in a mass spectrometer due to their difference in mass. The ratio of peak intensities in the mass spectrum for such peptide pairs reflects the abundance ratio for the two proteins.
This example describes SILAC studies that were performed to compare the effects of three different HDAC inhibitors (Compound A, Compound B, and tubastatin A) to a control on a human multiple myeloma cell line. The HDAC inhibitors were also compared amongst themselves to determine differences in their effects.
A human myeloma cell line MM.1S was grown using either ^12C (light) or ^13C (heavy) lysine containing culture medium. The “heavy” cells were treated with DMSO as the control, and the “light” cells were treated with a single HDAC inhibitor at 37° C. for 6 hours. The heavy and light cells were lysed, and the lysates were mixed in 1:1 ratio and digested with the protease trypsin. The acetylated lysine containing peptides (due to the action of the HDAC inhibitor) in the digested peptide pool were captured by a non-specific anti-acetylated lysine antibody cocktail (the antibodies identify both light and heavy acetylated peptides), and subjected to mass spectrometry analysis in order to identify thousands of individual peptides.
Thousands of peptides were identified in pairs (^12C and ^13C) due to their known mass differences. The amino acid sequence and quantitative ratio (Light/Heavy) of a given peptide in two differentially treated cell lysates were then determined and annotated with their possible protein (gene) sources.
As stated above, three HDAC inhibitors (Compound A, Compound B, and Tubastatin A) were used. Thus, the SILAC method was performed three times, with a different HDAC inhibitor compared to a control each time. Accordingly, there are three pairs of quantitative data in the table below, i.e., Compound A:DMSO, Compound B:DMSO, and Tubastatin A:DMSO. A cut-off of 1.30 fold of change (increase or decrease) was then used to determine “changed” or “+” in the table, and any peptides with a fold of change less than 1.3 fold were determined to be “unchanged” or “0” in the table. Those peptides that were not identified were marked as “NA” in the table. […]

CN1CCc2c(c3ccccc3n2Cc2ccc(C(=O)NO)cc2)C1 [Tub A]
L/H ratio of acetylated peptide ASGLAAGK(ac)GVIVAK (SEQ ID NO: 37) (GART [156], log 2 scale, drug vs DMSO): 0.46
light to heavy ratio (L/H ratio) of acetylated peptide, log 2 scale (GDASK(ac)EDIDTAMK (SEQ ID NO: 161), Isoform 1 of Hydroxyacyl-coenzyme A dehydrogenase mitochondrial [241], HADH): 0.47
light to heavy ratio (L/H ratio) of acetylated peptide, log 2 scale (GDGTGGK(ac)SIYGER (SEQ ID NO: 196), Peptidyl-prolyl cis-trans isomerase B [116], PPIB): −0.54
light to heavy ratio (L/H ratio) of acetylated peptide, log 2 scale (GFAFVTFDDHDSVDK(ac)IVIQK (SEQ ID NO: 165), Isoform A1-B of Heterogeneous nuclear ribonucleoprotein A1 [161], HNRNPA1): −0.53
light to heavy ratio (L/H ratio) of acetylated peptide, log 2 scale (GFGGK(ac)YGVER (SEQ ID NO: 162), Hematopoietic lineage cell-specific protein [123], HCLS1): 0.77
light to heavy ratio (L/H ratio) of acetylated peptide, log 2 scale (GHLENNPALEK(ac)LLPHIR (SEQ ID NO: 208), 60S acidic ribosomal protein P0 [77], RPLP0): −0.48
light to heavy ratio (L/H ratio) of acetylated peptide, log 2 scale (GIVK(ac)DIIHDPGR (SEQ ID NO: 207), 60S ribosomal protein L8 [46], RPL8): −0.54
light to heavy ratio (L/H ratio) of acetylated peptide, log 2 scale (GLFIIDDK(ac)GILR (SEQ ID NO: 197), Peroxiredoxin-1 [136], PRDX1): −0.77
light to heavy ratio (L/H ratio) of acetylated peptide, log 2 scale (GLSSLLYGSIPK(ac)AAVR (SEQ ID NO: 220), Tricarboxylate transport protein mitochondrial [97], SLC25A1): 0.44
L/H ratio of acetylated peptide LVK(ac)VWNLANCK (SEQ ID NO: 39) (GNB2L1 [175], log 2 scale, drug vs DMSO): −0.70
L/H ratio of acetylated peptide IIVDELK(ac)QEVISTSSK (SEQ ID NO: 38) (GNB2L1 [271], log 2 scale, drug vs DMSO): −0.62
light to heavy ratio (L/H ratio) of acetylated peptide, log 2 scale (GPIGSIGPK(ac)GIPGEDGYR (SEQ ID NO: 146), Isoform 1 of Collagen alpha-3(VI) chain [2052], COL6A3): −0.80
L/H ratio of acetylated peptide (GSK(ac)K(ac)AVTK (SEQ ID NO: 490), Histone H2B type 2-E [16:17], HIST2H2BE): 0.00 log 2
L/H ratio of acetylated peptide (ac)AHYNFK(ac)K (SEQ ID NO: 40) (GTPBP4 [7], log 2 scale, drug vs DMSO): −0.38
light to heavy ratio (L/H ratio) of acetylated peptide, log 2 scale (GTVRPANDFNPDADAK(ac)ALR (SEQ ID NO: 130), Annexin A6 [370], ANXA6): 0.44
L/H ratio of acetylated peptide (GYGFGLIK(ac)LDLK (SEQ ID NO: 465), Voltage-dependent anion-selective channel protein 1 [28], VDAC1): 0.00 log 2
light to heavy ratio (L/H ratio) of acetylated peptide, log 2 scale (GYLTK(ac)EDLR (SEQ ID NO: 216), Protein S100-A10 [28], S100A10): 1.00
light to heavy ratio (L/H ratio) of acetylated peptide (ac)ACGLVASNLNLK(ac)PGECLR (SEQ ID NO: 575) (Galectin-1 [13], gene LGALS1, inhibitor:DMSO): 0.00 log 2
light to heavy ratio (L/H ratio) of acetylated peptide ISGASEK(ac)DIVHSGLAYTMER (SEQ ID NO: 543) (Glutamate dehydrogenase 1 mitochondrial [503], gene GLUD1, inhibitor:DMSO): 0.00 log 2
light to heavy ratio (L/H ratio) of acetylated peptide VVK(ac)QASEGPLK (SEQ ID NO: 597) (Glyceraldehyde-3-phosphate dehydrogenase [263], gene GAPDH, inhibitor:DMSO): 0.00 log 2
light to heavy ratio (L/H ratio), log 2 scale, acetylated peptide LLLLGAGESGK(ac)STIVK (SEQ ID NO: 769) (Guanine nucleotide-binding protein G(olf) subunit alpha [55], gene GNAL, drug:DMSO): 0.00
L/H ratio of acetylated peptide AGGK(ac)AGK(ac)DSGK (SEQ ID NO: 15) (H2AFV [5:8], log 2 scale, drug vs DMSO): 0.47
L/H ratio of acetylated peptide GQQQVFK(ac)GLNDK (SEQ ID NO: 41) (HADHA [406], log 2 scale, drug vs DMSO): 0.46
L/H ratio of acetylated peptide EPVAVLK(ac)ANR (SEQ ID NO: 9) (HEXB [161], log 2 scale, drug vs DMSO): −0.58
light to heavy ratio (L/H ratio) of acetylated peptide, log 2 scale (HIK(ac)ENDYYTPTGEFR (SEQ ID NO: 227), Dolichyl-diphosphooligosaccharide--protein glycosyltransferase subunit STT3A [613], STT3A): −0.44
L/H ratio of acetylated peptide PDPAK(ac)SAPAPK(ac)K (SEQ ID NO: 16) (HIST1H2BO [6:12], log 2 scale, drug vs DMSO): 0.47
light to heavy ratio (L/H ratio) of acetylated peptide, log 2 scale (HK(ac)DIDILIVR (SEQ ID NO: 178), Isocitrate dehydrogenase [NAD] subunit gamma mitochondrial [159], IDH3G): −1.00
light to heavy ratio (L/H ratio) of acetylated peptide SLNLK(ac)HIK (SEQ ID NO: 607) (HLA-B associated transcript 1 [188], gene SNORD84, DDX39B, inhibitor:DMSO): 0.00 log 2
L/H ratio of acetylated peptide K(ac)HPDSSVNFAEFSK (SEQ ID NO: 42) (HMGB2 [30], log 2 scale, drug vs DMSO): −0.48
L/H ratio of acetylated peptide RGEEGHDPK(ac)EPEQLR (SEQ ID NO: 43) (HNRNPA3 [29], log 2 scale, drug vs DMSO): −0.45
L/H ratio of acetylated peptide AFITNIPFDVK(ac)WQSLK (SEQ ID NO: 44) (HNRNPM [83], log 2 scale, drug vs DMSO): −0.48
L/H ratio of acetylated peptide AAEVLNK(ac)HSLSGRPLK (SEQ ID NO: 3) (HNRNPM [134], log 2 scale, drug vs DMSO): −0.87
L/H ratio of acetylated peptide VK(ac)VLFVR (SEQ ID NO: 45) (HNRNPR [341], log 2 scale, drug vs DMSO): −0.77
L/H ratio of acetylated peptide GYFEYIEENK(ac)YSR (SEQ ID NO: 46) (HNRNPU [246], log 2 scale, drug vs DMSO): −0.60
L/H ratio of acetylated peptide TTWVTK(ac)HAAENPGK (SEQ ID NO: 47) (HNRNPU [497], log 2 scale, drug vs DMSO): −0.56
L/H ratio of acetylated peptide NK(ac)EIFLR (SEQ ID NO: 52) (HSP90B1 [97], log 2 scale, drug vs DMSO): −1.00
L/H ratio of acetylated peptide […](ac)IR (SEQ ID NO: 49) (HSP90B1 [114], log 2 scale, drug vs DMSO): −0.53
L/H ratio of acetylated peptide EELVK(ac)NLGTIAK (SEQ ID NO: 48) (HSP90B1 [161], log 2 scale, drug vs DMSO): −0.60
L/H ratio of acetylated peptide ETLQQHK(ac)LLK (SEQ ID NO: 50) (HSP90B1 [455], log 2 scale, drug vs DMSO): −0.74
L/H ratio of acetylated peptide IADDK(ac)YNDTFWK (SEQ ID NO: 51) (HSP90B1 [479], log 2 scale, drug vs DMSO): −0.78
L/H ratio of acetylated peptide NQLTSNPENTVFDAK(ac)R (SEQ ID NO: 54) (HSPA5 [96], log 2 scale, drug vs DMSO): −0.74
L/H ratio of acetylated peptide […](ac)R (SEQ ID NO: 53) (HSPA5 [213], log 2 scale, drug vs DMSO): −0.54
L/H ratio of acetylated peptide […](ac)R (SEQ ID NO: 55) (HSPA8 [71], log 2 scale, drug vs DMSO): −0.48
light to heavy ratio (L/H ratio) of acetylated peptide NQVALNPQNTVFDAK(ac)R (SEQ ID NO: 267) (Heat shock 70 kDa protein 1A/1B [71], HSPA1B, HSPA1A, drug:DMSO): 0.59 log 2
